Values after ≈ are worked out from the molar mass of the structure shown.
Legend:
[1] = system: Staphylococcus epidermidis; assay: Antibacterial activity against Staphylococcus epidermidis ATCC 12228; type: functional
[2] = (§1) Cytotoxicity against human HL-60 cells assessed as reduction in cell viability measured after 24 hrs by resazurin dye based assay; type: toxicity; settings: HL-60 cells
HL-60 = assay: as §1; type: toxicity; settings: hl-60, 24 h
Trypanosoma brucei = assay: Antitrypanosomal activity against bloodstream form of Trypanosoma brucei clone 427-221a measured after 24 hrs by resazurin dye based assay; type: functional
Staphylococcus aureus [3] = assay: Antibacterial activity against Staphylococcus aureus ATCC 6538; type: functional
Escherichia coli [4] = assay: Antibacterial activity against Escherichia coli ATCC 25922; type: functional
[5] = system: Staphylococcus epidermidis; assay: Antibacterial activity against Staphylococcus epidermidis 848/19; type: functional
[6] = Selectivity ratio of GI50 for cytotoxicity against human HL-60 cells to GI50 for antitrypanosomal activity against bloodstream form of Trypanosoma brucei clone 427-221a; type: toxicity, cell-based; settings: read-out: RatioGI50
Staphylococcus aureus [7] = assay: Antibacterial activity against Staphylococcus aureus ATCC 25923; type: functional
Staphylococcus aureus [8] = assay: Antibacterial activity against Staphylococcus aureus ATCC 29213; type: functional
Pseudomonas aeruginosa [9] = assay: Antibacterial activity against Pseudomonas aeruginosa ATCC 15442; type: functional
[10] = system: Staphylococcus epidermidis; assay: Antibacterial activity against Staphylococcus epidermidis 830/19; type: functional
Escherichia coli [11] = assay: Antibacterial activity against Escherichia coli NCTC 10538; type: functional
Staphylococcus aureus [12] = assay: Antibacterial activity against Staphylococcus aureus NCTC 4163; type: functional
[13] = system: Staphylococcus epidermidis; assay: Antibacterial activity against Staphylococcus epidermidis 829/19; type: functional
Pseudomonas aeruginosa [14] = assay: Antibacterial activity against Pseudomonas aeruginosa […]; type: functional
[15] = system: Staphylococcus epidermidis; assay: Antibacterial activity against Staphylococcus epidermidis 834/19; type: functional
[16] = system: Staphylococcus epidermidis; assay: Antibacterial activity against Staphylococcus epidermidis ATCC 35984; type: functional
[17] = system: Staphylococcus epidermidis; assay: Potency index, ratio of ciprofloxacin MIC to test compound MIC for antibacterial activity against Staphylococcus epidermidis 825/19; type: functional
[18] = system: Staphylococcus epidermidis; assay: Potency index, ratio of ciprofloxacin MIC to test compound MIC for antibacterial activity against Staphylococcus epidermidis 845/19; type: functional
[19] = Selectivity ratio of MIC for cytotoxicity against human HL-60 cells to MIC for antitrypanosomal activity against bloodstream form of Trypanosoma brucei clone 427-221a; type: toxicity, cell-based
[20] = system: Staphylococcus epidermidis; assay: Antibacterial activity against Staphylococcus epidermidis 851/19; type: functional
[21] = system: Staphylococcus epidermidis; assay: Potency index, ratio of ciprofloxacin MIC to test compound MIC for antibacterial activity against Staphylococcus epidermidis 830/19; type: functional
[22] = system: Staphylococcus epidermidis; assay: Antibacterial activity against Staphylococcus epidermidis 840/19; type: functional
[23] = system: Staphylococcus epidermidis; assay: Antibacterial activity against Staphylococcus epidermidis 825/19; type: functional
[24] = system: Staphylococcus epidermidis; assay: Antibacterial activity against Staphylococcus epidermidis 845/19; type: functional

MIC [1] [µg/mL] | GI50 (Trypanosoma brucei) [µM] | MIC (Trypanosoma brucei) [µM] | MIC (Staphylococcus aureus [3]) [µg/mL] | MIC (Escherichia coli [4]) [µg/mL] | MIC [5] [µg/mL] | MIC (Staphylococcus aureus [7]) [µg/mL] | MIC (Staphylococcus aureus [8]) [µg/mL] | MIC (Pseudomonas aeruginosa [9]) [µg/mL] | MIC [10] [µg/mL] | MIC (Escherichia coli [11]) [µg/mL] | MIC (Staphylococcus aureus [12]) [µg/mL] | MIC [13] [µg/mL] | MIC (Pseudomonas aeruginosa [14]) [µg/mL] | MIC [15] [µg/mL] | MIC [16] [µg/mL] | SMILES | GI50 at 24 h [2] [µM] | MIC (HL-60) [µM] | selectivity ratio [6] | selectivity ratio [19] | also measured
0.25 (≈ 0.316 µM) | 0.27 | 1 (≈ 0.792 µg/mL) | 0.25 (≈ 0.316 µM) | > 256 | 0.5 (≈ 0.631 µM) | 0.25 (≈ 0.316 µM) | 0.25 (≈ 0.316 µM) | > 256 | 0.25 (≈ 0.316 µM) | > 256 | 0.25 (≈ 0.316 µM) | 0.25 (≈ 0.316 µM) | > 256 | 0.5 (≈ 0.631 µM) | 0.5 (≈ 0.631 µM) | CO[C@H]([C@H](C)[C@H]1O[C@@]2(CC[C@@](C)([C@H]3CC[C@@](CO)([C@@H]4O[C@@H]([C@H]5O[C@@](O)(COC(=O)Nc6ccccc6)[C@H](C)C[C@@H]5C)C[C@@H]4C)O3)O2)C[C@H](O)[C@H]1C)[C@H](C)C(=O)O | 8.94 | 100 (≈ 79.2 µg/mL) | 33.1 | 100 | Ratio [17]: <=256; Ratio [18]: <=256; MIC [20]: 0.5 µg/mL (≈ 0.631 µM); Ratio [21]: <=256; MIC [22]: 0.5 µg/mL (≈ 0.631 µM); MIC [23]: 0.25 µg/mL (≈ 0.316 µM); MIC [24]: 0.5 µg/mL (≈ 0.631 µM)
1 (≈ 1.29 µM) | 2.62 | 10 (≈ 7.77 µg/mL) | 1 (≈ 1.29 µM) | > 256 | 2 (≈ 2.57 µM) | 1 (≈ 1.29 µM) | 1 (≈ 1.29 µM) | > 256 | 1 (≈ 1.29 µM) | > 256 | 1 (≈ 1.29 µM) | 2 (≈ 2.57 µM) | > 256 | 1 (≈ 1.29 µM) | 1 (≈ 1.29 µM) | CO[C@H]([C@H](C)[C@H]1O[C@@]2(CC[C@@](C)([C@H]3CC[C@@](CO)([C@@H]4O[C@@H]([C@H]5O[C@@](O)(COC(=O)c6ccccc6)[C@H](C)C[C@@H]5C)C[C@@H]4C)O3)O2)C[C@H](O)[C@H]1C)[C@H](C)C(=O)O | 18.3 | 100 (≈ 77.7 µg/mL) | 7 | 10 | MIC [20]: 1 µg/mL (≈ 1.29 µM); MIC [22]: 2 µg/mL (≈ 2.57 µM); MIC [23]: 0.5 µg/mL (≈ 0.644 µM); MIC [24]: 2 µg/mL (≈ 2.57 µM)

— ChEMBL document CHEMBL5131424, “Synthesis and evaluation of antibacterial and trypanocidal activity of derivatives of monensin A” (Bioorg Med Chem Lett, 2022)
